Measured values taken from ChEMBL document CHEMBL1142782, “Inhibition of tumor cell proliferation by thieno[2,3-d]pyrimidin-4(1H)-one-based analogs” (Bioorg Med Chem Lett, 2005).
pIC50: −log10 of the molar value.

How the values were obtained:
[1] = system: LoVo; experiment: Inhibitory concentration against human colon tumor cell line LoVo; assay type: functional, cell-based
[2] = system: HT-29; experiment: Inhibitory concentration against human colon tumor cell line HT-29; assay type: functional, cell-based
[3] = system: SW-620; experiment: Inhibitory concentration against human colon tumor cell line SW620; assay type: functional, cell-based
[4] = system: DLD-1; experiment: Inhibitory concentration against human colon tumor cell line DLD1; assay type: functional, cell-based
[5] = target: Cyclin-dependent kinase inhibitor 1 (Homo sapiens) (UniProt P38936); experiment: Selectivity ratio between p21(-/-) and p21(+/+) isogenic cell lines; assay type: functional
Sequence of Cyclin-dependent kinase inhibitor 1 (Homo sapiens) (P38936 whole entry): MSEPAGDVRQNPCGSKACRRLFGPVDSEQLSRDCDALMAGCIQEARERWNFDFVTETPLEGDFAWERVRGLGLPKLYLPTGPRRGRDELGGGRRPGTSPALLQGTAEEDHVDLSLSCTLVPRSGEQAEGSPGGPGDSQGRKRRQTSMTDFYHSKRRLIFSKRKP

pIC50 [1] | pIC50 [2] | pIC50 [3] | pIC50 [4] | Ratio [5] | SMILES
6.85 | 6.62 | 6.72 | 6.55 | > 8.7 | COc1cc(-c2nc(O)c3c4c(sc3n2)CCCC4)cc(OC)c1OC
6.82 | 6.48 | 6.64 | 6.54 | > 8.5 | COc1ccc(-c2nc(O)c3c4c(sc3n2)CCCC4)cc1
6.34 | 6.38 | 6.38 | 6.66 | 19 | COc1ccc(-c2nc(O)c3c4c(sc3n2)CCCC4)c(F)c1
6.77 | 6.35 | 6.66 | 6.46 | 8.7 | COc1cc(-c2nc(O)c3c4c(sc3n2)CCCCC4)cc(OC)c1OC
6.82 | 6.48 | 6.64 | 6.54 | 8.3 | COc1ccc(-c2nc(O)c3c4c(sc3n2)CCC4)cc1
5.59 | 5.30 | 5.30 | 5.34 | > 2.4 | CCOc1ccc(-c2nc(O)c3c4c(sc3n2)CCCC4)cc1
6.37 | 6.00 | 6.10 | 6.05 | > 4.9 | CSc1ccc(-c2nc(O)c3c4c(sc3n2)CCCC4)cc1
6.89 | 6.52 | 6.72 | 6.59 | > 5.8 | COc1cc(-c2nc(O)c3c4c(sc3n2)CCC4)cc(OC)c1OC

SMILES | pIC50 [1] | pIC50 [2] | pIC50 [3] | pIC50 [4] | Ratio [5]
O=C(c1cccs1)c1cnn2c(-c3cccc(NC(=O)C4CC4)c3)ccnc12 | – | – | – | – | 30
